Data as given in PubChem BioAssay AID248 (DTP/NCI, 2004).
“And” between values parts separate entries of the source, which are not always exact repeats. Identical values can stand only once. Inconclusive results and toxic doses are left out. Cut-off read from the data, not from the text of the source: active = T/C of 150% or more; inactive = T/C below 125%.

Tested on: L1210 leukemia ip in BDF1 mice, survival T/C
Assay: NCI In Vivo Anticancer Drug Screen. Data for tumor model L1210 Leukemia (intraperitoneal) in B6D2F1 (BDF1) mice
Conditions: endpoint: mean survival time, higher = longer survival
How it was run: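 Transplanted-tumor mice were given test agent; controls received vehicle only. Survival readings from the two groups were divided (treated over control).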

[1] = dose: 100.0 mg/kg/injection, schedule: Q01DX001 (ip), vehicle: carboxymethylcellulose (CMC)
[2] = dose: 200.0 mg/kg/injection, schedule: Q01DX001 (ip), vehicle: carboxymethylcellulose (CMC)
[3] = dose: 400.0 mg/kg/injection, schedule: Q01DX001 (ip), vehicle: carboxymethylcellulose (CMC)
[4] = dose: 100.0 mg/kg/injection, schedule: Q04DX002 (ip), vehicle: Klucel (hydroxypropylcellulose) (HPC)
[5] = dose: 200.0 mg/kg/injection, schedule: Q04DX002 (ip), vehicle: Klucel (hydroxypropylcellulose) (HPC)
[6] = dose: 400.0 mg/kg/injection, schedule: Q04DX002 (ip), vehicle: Klucel (hydroxypropylcellulose) (HPC)
[7] = dose: 100.0 mg/kg/injection, schedule: Q04DX002 (ip), vehicle: saline
[8] = dose: 200.0 mg/kg/injection, schedule: Q04DX002 (ip), vehicle: saline
[9] = dose: 400.0 mg/kg/injection, schedule: Q04DX002 (ip), vehicle: saline
[10] = dose: 100.0 mg/kg/injection, schedule: Q01DX009 (ip), vehicle: Klucel (hydroxypropylcellulose) (HPC)
[11] = dose: 200.0 mg/kg/injection, schedule: Q01DX009 (ip), vehicle: Klucel (hydroxypropylcellulose) (HPC)
[12] = dose: 400.0 mg/kg/injection, schedule: Q01DX009 (ip), vehicle: Klucel (hydroxypropylcellulose) (HPC)
[13] = dose: 100.0 mg/kg/injection, schedule: Q04DX003 (ip), vehicle: Klucel (hydroxypropylcellulose) (HPC)

Measured: T/C

CC(C)N1C(=O)NC(=O)C12CCN(Cc1ccccc1)CC2
inactive: [1] 101 % of control | [2] 98 % of control | [3] 95 % of control

COc1cc(C2=N/C(=C\c3cc(Cl)cc(Cl)c3O)C(=O)O2)cc(OC)c1OC
inactive: [4] 107 % of control | [5] 110 % of control | [6] 100 % of control

NC(N)=N/N=C\CCC/C=N/N=C(N)N
inactive: dose: 15.0 mg/kg/injection, schedule: Q01DX Z (ip), vehicle: saline 98 % of control | dose: 30.0 mg/kg/injection, schedule: Q01DX Z (ip), vehicle: saline 97 % of control | dose: 60.0 mg/kg/injection, schedule: Q01DX Z (ip), vehicle: saline 105 % of control | dose: 60.0 mg/kg/injection, schedule: Q01DX Z (oral), vehicle: other 95 % of control | dose: 120.0 mg/kg/injection, schedule: Q01DX Z (ip), vehicle: saline 94 % of control | dose: 120.0 mg/kg/injection, schedule: Q01DX Z (oral), vehicle: other 100 % of control | dose: 240.0 mg/kg/injection, schedule: Q01DX Z (oral), vehicle: other 97 % of control | dose: 480.0 mg/kg/injection, schedule: Q01DX Z (oral), vehicle: other 102 % of control

O=C(O)/C=C/C(=O)Nc1cccc(C(F)(F)F)c1
inactive: [4] 100 % of control | [5] 100 % of control | [6] 96 % of control

CNC(=O)NC1C(CO)OC2OC(C)(C)OC21 (centres undefined)
inactive: [7] 100 % of control | [8] 97 % of control | [9] 94 % of control

O=Cc1cccc(OCc2cccc([N+](=O)[O-])c2)c1
inactive: [10] 98 % of control | [4] 108 % of control | [7] 102 % of control | [11] 102 % of control | [5] 105 % of control | [8] 97 % of control | [12] 95 % of control | [6] 97 % of control | [9] 108 % of control

O=[N+]([O-])c1ccc2conc2c1
inactive: dose: 50.0 mg/kg/injection, schedule: Q01DX001 (ip), vehicle: carboxymethylcellulose (CMC) 94 % of control | [1] 97 % of control | [2] 92 % of control

O=C(O)c1ccc([N+](=O)[O-])cc1F
inactive: [1] 101 % of control | dose: 100.0 mg/kg/injection, schedule: Q01DX009 (ip), vehicle: carboxymethylcellulose (CMC) 96 % of control and 116 % of control | [4] 90 % of control | dose: 100.0 mg/kg/injection, schedule: Q04DX002 (ip), vehicle: carboxymethylcellulose (CMC) 102 % of control and 107 % of control | dose: 100.0 mg/kg/injection, schedule: Q04DX003 (ip), vehicle: carboxymethylcellulose (CMC) 97 % of control | [2] 99 % of control | dose: 200.0 mg/kg/injection, schedule: Q01DX009 (ip), vehicle: carboxymethylcellulose (CMC) 107 % of control and 89 % of control | [5] 104 % of control | dose: 200.0 mg/kg/injection, schedule: Q04DX002 (ip), vehicle: carboxymethylcellulose (CMC) 99 % of control and 110 % of control | dose: 200.0 mg/kg/injection, schedule: Q04DX003 (ip), vehicle: carboxymethylcellulose (CMC) 100 % of control | dose: 400.0 mg/kg/injection, schedule: Q01DX009 (ip), vehicle: carboxymethylcellulose (CMC) 89 % of control | [6] 93 % of control | dose: 400.0 mg/kg/injection, schedule: Q04DX002 (ip), vehicle: carboxymethylcellulose (CMC) 100 % of control and 86 % of control

Cc1ccc(-c2nn[nH]n2)cc1
inactive: dose: 100.0 mg/kg/injection, schedule: Q04DX003 (ip), vehicle: saline 97 % of control | dose: 200.0 mg/kg/injection, schedule: Q04DX003 (ip), vehicle: saline 96 % of control | dose: 400.0 mg/kg/injection, schedule: Q04DX003 (ip), vehicle: saline 96 % of control

CC(=O)OC1CCC2C3CCC4=C(Cl)C(=O)CCC4C3CCC12C (centres undefined)
inactive: dose: 100.0 mg/kg/injection, schedule: Q01DX009 (sc), vehicle: steriod suspending solution 103 % of control | dose: 200.0 mg/kg/injection, schedule: Q01DX009 (sc), vehicle: steriod suspending solution 102 % of control | dose: 400.0 mg/kg/injection, schedule: Q01DX009 (sc), vehicle: steriod suspending solution 100 % of control

Fc1ccc(/C=C2/c3cc(Cl)ccc3-c3c(Cl)cc(Cl)cc32)cc1
inactive: dose: 100.0 mg/kg/injection, schedule: Q01DX001 (ip), vehicle: Klucel (hydroxypropylcellulose) (HPC) 96 % of control | [10] 98 % of control | [13] 98 % of control | dose: 200.0 mg/kg/injection, schedule: Q01DX001 (ip), vehicle: Klucel (hydroxypropylcellulose) (HPC) 90 % of control | [11] 104 % of control | dose: 200.0 mg/kg/injection, schedule: Q04DX003 (ip), vehicle: Klucel (hydroxypropylcellulose) (HPC) 90 % of control | dose: 400.0 mg/kg/injection, schedule: Q01DX001 (ip), vehicle: Klucel (hydroxypropylcellulose) (HPC) 89 % of control | [12] 114 % of control | dose: 400.0 mg/kg/injection, schedule: Q04DX003 (ip), vehicle: Klucel (hydroxypropylcellulose) (HPC) 95 % of control

O=C(Nc1ccc(C(=O)Nc2cc(S(=O)(=O)O)cc3cccc(S(=O)(=O)O)c23)cc1)Nc1ccc(C(=O)Nc2cc(S(=O)(=O)O)cc3cccc(S(=O)(=O)O)c23)cc1
inactive: dose: 37.5 mg/kg/injection, schedule: Q04DX003 (ip), vehicle: carboxymethylcellulose (CMC) 97 % of control | dose: 75.0 mg/kg/injection, schedule: Q01DX001 (ip), vehicle: carboxymethylcellulose (CMC) 93 % of control | dose: 75.0 mg/kg/injection, schedule: Q04DX003 (ip), vehicle: carboxymethylcellulose (CMC) 101 % of control | dose: 150.0 mg/kg/injection, schedule: Q01DX001 (ip), vehicle: carboxymethylcellulose (CMC) 105 % of control | dose: 150.0 mg/kg/injection, schedule: Q04DX003 (ip), vehicle: carboxymethylcellulose (CMC) 95 % of control

C=C1C(=O)OC2/C=C(\C)C(O)C/C=C(/C)CCC12 (centres undefined)
inactive: dose: 25.0 mg/kg/injection, schedule: Q04DX003 (ip), vehicle: Klucel (hydroxypropylcellulose) (HPC) 96 % of control | dose: 50.0 mg/kg/injection, schedule: Q04DX003 (ip), vehicle: Klucel (hydroxypropylcellulose) (HPC) 102 % of control | [13] 100 % of control

NC(=O)N/C=N/N=C(N)N
inactive: dose: 15.0 mg/kg/injection, schedule: Q01DX Z (ip), vehicle: methylcellulose (MC) 101 % of control | dose: 30.0 mg/kg/injection, schedule: Q01DX Z (ip), vehicle: methylcellulose (MC) 107 % of control | dose: 60.0 mg/kg/injection, schedule: Q01DX Z (ip), vehicle: methylcellulose (MC) 108 % of control | dose: 120.0 mg/kg/injection, schedule: Q01DX Z (ip), vehicle: methylcellulose (MC) 108 % of control | dose: 240.0 mg/kg/injection, schedule: Q01DX Z (ip), vehicle: methylcellulose (MC) 94 % of control | dose: 420.0 mg/kg/injection, schedule: Q01DX Z (ip), vehicle: methylcellulose (MC) 94 % of control | dose: 600.0 mg/kg/injection, schedule: Q01DX Z (ip), vehicle: methylcellulose (MC) 86 % of control

CC(=O)Oc1ccc(Br)cc1C=O
inactive: [1] 100 % of control | [2] 94 % of control | [3] 103 % of control

C1COC2(OC1)OCCCO2
inactive: [4] 108 % of control | [5] 105 % of control | [6] 105 % of control

Clc1nc(Cl)c2c3c(sc2n1)CCCC3
inactive: dose: 100.0 mg/kg/injection, schedule: Q01DX001 (ip), vehicle: saline sonified 92 % of control | dose: 200.0 mg/kg/injection, schedule: Q01DX001 (ip), vehicle: saline sonified 107 % of control | dose: 400.0 mg/kg/injection, schedule: Q01DX001 (ip), vehicle: saline sonified 90 % of control
